The values below come from patent publication EP2197883B1, “Catecholamine derivative useful for the treatment of parkinson's disease” (H. Lundbeck A/S, priority 2007, dated 2009).

The subject of one series is PD patients. The following applies: intravenous (IV); cited from earlier work.
The conditions of series [1]: man, after oral dosing; cited from earlier work.
Series [2] deals with mouse model of severe dopamine depletion. Nature of the series: Superiority model. The format is in vivo. The note with it: mice. The source says: Both Apomorphine and L-DOPA stimulate D1 and D2-like dopamine receptors.

With `CCCc1cc2c(s1)CN[C@@H]1CCc3cc(OC(C)=O)c(OC(C)=O)cc3[C@@H]21` [Adrogolide], the antiparkinson efficacy entry in the series on PD patients was “comparable to that of L-DOPA”. The oral bioavailability in series [1] is around 4%.
Take `N[C@@H](Cc1ccc(O)c(O)c1)C(=O)O` [L-DOPA, (levo)-3,4-dihydroxy phenylalanine]: in series [2], the “reversal of motility deficits / restoration of locomotion” value was “able to reverse motility deficits”.
Same read-out and setting: the same measure for `CN1CCc2cccc3c2[C@H]1Cc1ccc(O)c(O)c1-3` [Apomorphine]: “able to reverse motility deficits”.
